Results reported in ChEMBL document CHEMBL5126530, “Building on endogenous lipid mediators to design synthetic receptor ligands” (Eur J Med Chem, 2022).

Tests used:
Format in all cases: functional, cell-based
[1] = target: Prostaglandin E2 receptor EP2 subtype (Homo sapiens, UniProt P43116); test: Agonist activity at human EP2 expressed in HEK293 cells assessed as increase in cAMP level incubated for 20 mins measured after 60 mins addition of cAMP detect reagent by HTRF analysis
[2] = target: T1, Prostaglandin D2 receptor (Homo sapiens, UniProt Q13258); test: Agonist activity at human DP1 expressed in human 1321N1 cells assessed as increase in cAMP level incubated for 20 mins measured after 60 mins addition of cAMP detect reagent by HTRF analysis
T1 sequence (Q13258 whole entry): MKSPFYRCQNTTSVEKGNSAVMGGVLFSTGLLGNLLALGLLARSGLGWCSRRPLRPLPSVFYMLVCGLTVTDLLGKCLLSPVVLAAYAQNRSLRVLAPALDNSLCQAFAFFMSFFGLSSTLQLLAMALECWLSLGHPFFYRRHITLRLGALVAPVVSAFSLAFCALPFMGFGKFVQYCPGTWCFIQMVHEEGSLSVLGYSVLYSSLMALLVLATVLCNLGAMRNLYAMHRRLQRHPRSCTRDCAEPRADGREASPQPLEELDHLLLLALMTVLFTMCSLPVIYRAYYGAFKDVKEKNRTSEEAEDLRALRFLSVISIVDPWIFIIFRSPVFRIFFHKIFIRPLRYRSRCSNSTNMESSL

[3] = target: T2, Prostaglandin E2 receptor EP1 subtype (Homo sapiens, UniProt P34995); test: Agonist activity at human EP1 expressed in HEK293 cells assessed as increase in cAMP level incubated for 20 mins measured after 60 mins addition of cAMP detect reagent by HTRF analysis
T2 sequence (P34995 whole entry): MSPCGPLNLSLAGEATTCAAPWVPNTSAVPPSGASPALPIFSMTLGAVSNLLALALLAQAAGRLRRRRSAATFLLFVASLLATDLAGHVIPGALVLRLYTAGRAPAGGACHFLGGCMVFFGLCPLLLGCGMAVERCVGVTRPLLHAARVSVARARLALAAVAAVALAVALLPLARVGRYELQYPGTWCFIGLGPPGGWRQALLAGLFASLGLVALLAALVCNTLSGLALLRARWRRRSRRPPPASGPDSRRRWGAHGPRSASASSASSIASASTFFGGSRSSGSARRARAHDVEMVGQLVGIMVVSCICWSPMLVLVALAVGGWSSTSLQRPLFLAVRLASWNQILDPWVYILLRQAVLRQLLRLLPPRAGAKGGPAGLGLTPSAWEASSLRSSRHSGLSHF

[4] = target: Prostacyclin receptor (Homo sapiens, UniProt P43119); test: Agonist activity at human IP expressed in HEK293 cells assessed as increase in cAMP level incubated for 20 mins measured after 60 mins addition of cAMP detect reagent by HTRF analysis
Prostacyclin receptor, sequence (P43119 whole entry): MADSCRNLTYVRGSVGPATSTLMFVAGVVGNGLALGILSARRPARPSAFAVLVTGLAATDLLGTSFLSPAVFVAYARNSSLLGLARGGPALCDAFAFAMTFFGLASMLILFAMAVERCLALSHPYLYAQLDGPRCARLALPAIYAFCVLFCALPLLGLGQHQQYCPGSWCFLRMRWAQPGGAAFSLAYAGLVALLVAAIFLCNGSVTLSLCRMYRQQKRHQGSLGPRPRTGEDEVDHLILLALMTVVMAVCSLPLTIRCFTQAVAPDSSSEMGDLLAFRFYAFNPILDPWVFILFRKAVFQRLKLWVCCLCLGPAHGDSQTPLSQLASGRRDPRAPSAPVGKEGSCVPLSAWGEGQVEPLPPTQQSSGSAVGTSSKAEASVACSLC

Prostaglandin E2 receptor EP2 subtype, sequence (P43116 whole entry): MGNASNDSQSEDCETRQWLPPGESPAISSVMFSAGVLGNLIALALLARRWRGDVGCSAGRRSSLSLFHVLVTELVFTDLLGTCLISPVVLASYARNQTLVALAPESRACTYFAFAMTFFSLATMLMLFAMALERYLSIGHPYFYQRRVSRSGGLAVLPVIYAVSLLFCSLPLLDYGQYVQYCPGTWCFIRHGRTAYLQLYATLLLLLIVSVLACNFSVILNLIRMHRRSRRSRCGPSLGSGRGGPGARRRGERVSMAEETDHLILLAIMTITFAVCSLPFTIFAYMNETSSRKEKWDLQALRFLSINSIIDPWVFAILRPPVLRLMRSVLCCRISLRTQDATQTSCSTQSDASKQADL

EC50 [1]	EC50 [2]	EC50 [3]	EC50 [4]	SMILES
2090 nM	2060 nM	0.3 nM		CC#CCC(C)[C@H](O)/C=C/[C@@H]1[C@H]2C/C(=C/CCCC(=O)O)C[C@H]2C[C@H]1O (some centres not stated) [ILOPROST]
6.2 nM	0.6 nM	285 nM	1.9 nM	CCCCC[C@H](O)CC[C@@H]1[C@H]2Cc3cccc(OCC(=O)O)c3C[C@H]2C[C@H]1O [TREPROSTINIL]
